Source: patent US10125126B2, “N-cycloalkyl-N-[(heterocyclylphenyl)methylene]-(thio)carboxamide derivatives” (BAYER CROPSCIENCE AG, priority 2012, dated 2018)

Test system: Botrytis cinerea
Experiment: In vivo preventive test on Botrytis cinerea (grey mould)
Conditions: 100 ppm of active ingredient; gherkin plants; 4 to 5 days after contamination
Experimental: In Vivo Preventive Test on Botrytis cinerea (Grey Mould) […] Gherkin plants (“Vert petit de Paris” variety), sown in starter cups on a 50/50 peat soil pozzolana substrate and grown at 24° C., are treated at the Z11 cotyledon stage by spraying with the active ingredient prepared as described above. Plants, used as controls, are treated with the mixture of acetone/tween/DMSO/water not containing the active material. After 24 hours, the plants are contaminated by spraying the cotyledons with an aqueous suspension of cryopreserved Botrytis cinerea spores (50 000 spores per mL). The spores are suspended in a nutrient solution composed of 10 g/L of PDB, 50 g/L of D-Fructose, 2 g/L of NH4NO3 and 1 g/L of KH2PO4. The contaminated gherkin plants are incubated at 17° C. and at 90% relative humidity. Grading (% of efficacy) is carried out 4 to 5 days after the contamination, in comparison with the control plants.

SMILES	Efficacy
Cn1cc(C(=O)N(Cc2ccccc2-c2ccco2)C2CC2)c(C(F)F)n1 [I.31]	81%
Cn1nc(C(F)F)c(C(=O)N(Cc2ccccc2-c2ccco2)C2CC2)c1F [I.32]	94%
Cn1nc(C(F)F)c(C(=O)N(Cc2cc(-c3ccco3)ccc2Cl)C2CC2)c1Cl [I.35]	94%
Cc1ccc(-c2cnn(C)c2)c(CN(C(=O)c2cn(C)nc2C(F)F)C2CC2)c1 [I.59]	81%
CC(c1ccccc1-c1ccsc1)N(C(=O)c1c(C(F)F)nn(C)c1F)C1CC1 (stereo not drawn) [I.82]	97%
Cn1cc(C(=O)N(Cc2cc(-c3cccs3)ccc2Cl)C2CC2)c(C(F)F)n1 [I.84]	100%
Cc1ccc(-c2cscc2C)c(CN(C(=O)c2c(C(F)F)nn(C)c2F)C2CC2)c1 [I.108]	100%
COc1ccsc1-c1ccc(C)cc1CN(C(=O)c1c(C(F)F)nn(C)c1F)C1CC1 [I.125]	78%
Cn1nc(C(F)F)c(C(=O)N(Cc2cc(-c3ccc(Cl)s3)ccc2Cl)C2CC2)c1Cl [I.145]	100%
Cc1ccc(-c2ccsc2Cl)c(CN(C(=O)c2c(C(F)F)nn(C)c2F)C2CC2)c1 [I.150]	90%

Same assay, conditions: 500 ppm of active ingredient; gherkin plants; 4 to 5 days after contamination

SMILES	Efficacy
Cn1ccc(-c2ccccc2CN(C(=O)c2c(C(F)F)nn(C)c2F)C2CC2)c1 [I.49]	99%
Cn1nc(C(F)F)c(C(=O)N(Cc2ccccc2-c2cccs2)C2CC2)c1Cl [I.78]	78%
Cn1nc(C(F)F)c(C(=O)N(Cc2ccccc2-c2ccc(Cl)s2)C2CC2)c1Cl [I.141]	90%
Cn1cc(C(=O)N(Cc2cc(-c3ccc(Cl)s3)ccc2Cl)C2CC2)c(C(F)F)n1 [I.144]	98%
Cn1cc(C(=O)N(Cc2cc(Cl)ccc2-c2ccc(Cl)s2)C2CC2)c(C(F)F)c1 [I.146]	100%

Test system: Uromyces appendiculatus
Experiment: In vivo preventive test on Uromyces appendiculatus (bean rust)
Conditions: 100 ppm of active ingredient; bean plants; 11 days after contamination
Experimental: In Vivo Preventive Test on Uromyces appendiculatus (Bean Rust) […] Bean plants (“Saxa” variety), sown in starter cups on a 50/50 peat soil pozzolana substrate and grown at 24° C., are treated at the 2 leaf stage (9 cm height) by spraying with the active ingredient prepared as described above. Plants, used as controls, are treated with the mixture of acetone/tween/DMSO/water not containing the active material. After 24 hours, the plants are contaminated by spraying the leaves with an aqueous suspension of Uromyces appendiculatus spores (150 000 spores per mL). The spores are collected from infected plants and are suspended in water containing 2.5 mL/L of Tween 80 at 10%. […] Grading (% of efficacy) is carried out 11 days after the contamination, in comparison with the control plants.

SMILES	Efficacy
Cn1nc(C(F)F)c(C(=O)N(Cc2ccccc2-c2ccco2)C2CC2)c1F [I.32]	74%

Same assay, conditions: 500 ppm of active ingredient; bean plants; 11 days after contamination

SMILES	Efficacy
Cn1ccc(-c2ccccc2CN(C(=O)c2c(C(F)F)nn(C)c2F)C2CC2)c1 [I.49]	100%
Cn1nc(C(F)F)c(C(=O)N(Cc2ccccc2-c2cccs2)C2CC2)c1Cl [I.78]	85%
Cn1cc(C(=O)N(Cc2cc(-c3ccc(Cl)s3)ccc2Cl)C2CC2)c(C(F)F)n1 [I.144]	94%
Cn1nc(C(F)F)c(C(=O)N(Cc2cc(-c3ccc(Cl)s3)ccc2Cl)C2CC2)c1Cl [I.145]	100%

Test system: Sphaerotheca fuliginea
Experiment: In vivo preventive test on Sphaerotheca fuliginea (powdery mildew on cucurbits)
Conditions: 100 ppm of active ingredient; gherkin plants; 12 days after contamination
Experimental: In Vivo Preventive Test on Sphaerotheca fuliginea (Powdery Mildew on Cucurbits) […] Gherkin plants (“Vert petit de Paris” variety), sown in starter cups on a 50/50 peat soil-pozzolana substrate and grown at 24° C., are treated at the Z11 cotyledon stage by spraying with the active ingredient prepared as described above. Plants, used as controls, are treated with the mixture of acetone/tween/DMSO/water not containing the active material. After 24 hours, the plants are contaminated by spraying the cotyledons with an aqueous suspension of Sphaerotheca fuliginea spores (100 000 spores per mL). The spores are collected from infected plants. […] Grading (% of efficacy) is carried out 12 days after the contamination, in comparison with the control plants.

SMILES	Efficacy
CC(c1ccccc1-c1ccsc1)N(C(=O)c1c(C(F)F)nn(C)c1F)C1CC1 (stereo not drawn) [I.82]	98%
Cc1ccc(-c2cscc2C)c(CN(C(=O)c2c(C(F)F)nn(C)c2F)C2CC2)c1 [I.108]	75%
COc1ccsc1-c1ccc(C)cc1CN(C(=O)c1c(C(F)F)nn(C)c1F)C1CC1 [I.125]	95%
Cc1ccc(-c2ccsc2Cl)c(CN(C(=O)c2c(C(F)F)nn(C)c2F)C2CC2)c1 [I.150]	100%

Same assay, conditions: 500 ppm of active ingredient; gherkin plants; 12 days after contamination

SMILES	Efficacy
Cn1ccc(-c2ccccc2CN(C(=O)c2c(C(F)F)nn(C)c2F)C2CC2)c1 [I.49]	78%

Test system: Puccinia recondita
Experiment: In vivo preventive test on Puccinia recondita (brown rust on wheat)
Conditions: 100 ppm of active ingredient; wheat plants; 12 days after contamination
Experimental: In Vivo Preventive Test on Puccinia recondita (Brown Rust on Wheat) […] Wheat plants (“Scipion” variety), sown in starter cups on a 50/50 peat soil pozzolana substrate and grown at 22° C., are treated at the 1 leaf stage (10 cm height) by spraying with the active ingredient prepared as described above. Plants, used as controls, are treated with the mixture of acetone/tween/DMSO/water not containing the active material. After 24 hours, the plants are contaminated by spraying the leaves with an aqueous suspension of Puccinia recondita spores (100 000 spores per mL). The spores are collected from an infected plant and are suspended in water containing 2.5 mL/L of Tween 80 at 10%. […] Grading (% of efficacy) is carried out 12 days after the contamination, in comparison with the control plants.

SMILES	Efficacy
Cn1nc(C(F)F)c(C(=O)N(Cc2ccccc2-c2ccco2)C2CC2)c1F [I.32]	88%
CC(c1ccccc1-c1ccsc1)N(C(=O)c1c(C(F)F)nn(C)c1F)C1CC1 (stereo not drawn) [I.82]	81%
COc1ccsc1-c1ccc(C)cc1CN(C(=O)c1c(C(F)F)nn(C)c1F)C1CC1 [I.125]	81%
Cc1ccc(-c2ccsc2Cl)c(CN(C(=O)c2c(C(F)F)nn(C)c2F)C2CC2)c1 [I.150]	81%

Same assay, conditions: 500 ppm of active ingredient; wheat plants; 12 days after contamination

SMILES	Efficacy
Cn1nc(C(F)F)c(C(=O)N(Cc2ccccc2-c2ccc(Cl)s2)C2CC2)c1Cl [I.141]	86%
Cn1cc(C(=O)N(Cc2cc(-c3ccc(Cl)s3)ccc2Cl)C2CC2)c(C(F)F)n1 [I.144]	75%
Cn1nc(C(F)F)c(C(=O)N(Cc2cc(-c3ccc(Cl)s3)ccc2Cl)C2CC2)c1Cl [I.145]	88%

Test system: not listed separately
Experiment: log P by HPLC on a reversed-phase column (C 18), EEC Directive 79/831 Annex V.A8
Type: physicochemical
Conditions: HPLC on reversed-phase column (C 18), 40° C., 0.1% aqueous formic acid and acetonitrile, linear gradient 10% to 90% acetonitrile
Experimental: In table 1, the log P values were determined in accordance with EEC Directive 79/831 Annex V.A8 by HPLC (High Performance Liquid Chromatography) on a reversed-phase column (C 18), using the method described below: Temperature: 40° C.; Mobile phases: 0.1% aqueous formic acid and acetonitrile; linear gradient from 10% acetonitrile to 90% acetonitrile. Calibration was carried out using unbranched alkan-2-ones (comprising 3 to 16 carbon atoms) with known log P values (determination of the log P values by the retention times using linear interpolation between two successive alkanones). lambda-max-values were determined using UV-spectra from 200 nm to 400 nm and the peak values of the chromatographic signals.

SMILES	logP
Cn1cc(C(=O)N(Cc2ccccc2-c2ccco2)C2CC2)c(C(F)F)n1 [I.31]	2.96
Cn1nc(C(F)F)c(C(=O)N(Cc2ccccc2-c2ccco2)C2CC2)c1F [I.32]	3.31
Cn1nc(C(F)F)c(C(=O)N(Cc2cc(-c3ccco3)ccc2Cl)C2CC2)c1Cl [I.35]	4.01
Cn1ccc(-c2ccccc2CN(C(=O)c2c(C(F)F)nn(C)c2F)C2CC2)c1 [I.49]	3.25
Cc1ccc(-c2cnn(C)c2)c(CN(C(=O)c2cn(C)nc2C(F)F)C2CC2)c1 [I.59]	2.37
Cn1nc(C(F)F)c(C(=O)N(Cc2ccccc2-c2cccs2)C2CC2)c1Cl [I.78]	3.78
CC(c1ccccc1-c1ccsc1)N(C(=O)c1c(C(F)F)nn(C)c1F)C1CC1 (stereo not drawn) [I.82]	3.78
Cn1cc(C(=O)N(Cc2cc(-c3cccs3)ccc2Cl)C2CC2)c(C(F)F)n1 [I.84]	3.68
Cc1ccc(-c2cscc2C)c(CN(C(=O)c2c(C(F)F)nn(C)c2F)C2CC2)c1 [I.108]	4.25
COc1ccsc1-c1ccc(C)cc1CN(C(=O)c1c(C(F)F)nn(C)c1F)C1CC1 [I.125]	3.83
Cn1nc(C(F)F)c(C(=O)N(Cc2ccccc2-c2ccc(Cl)s2)C2CC2)c1Cl [I.141]	4.51
Cn1cc(C(=O)N(Cc2cc(-c3ccc(Cl)s3)ccc2Cl)C2CC2)c(C(F)F)n1 [I.144]	4.41
Cn1nc(C(F)F)c(C(=O)N(Cc2cc(-c3ccc(Cl)s3)ccc2Cl)C2CC2)c1Cl [I.145]	5.06
Cn1cc(C(=O)N(Cc2cc(Cl)ccc2-c2ccc(Cl)s2)C2CC2)c(C(F)F)c1 [I.146]	4.85
Cc1ccc(-c2ccsc2Cl)c(CN(C(=O)c2c(C(F)F)nn(C)c2F)C2CC2)c1 [I.150]	4.26

Test system: Septoria tritici
Experiment: In vivo preventive test on Septoria tritici (wheat)
Conditions: 100 ppm of active ingredient; wheat plants; 24 days after contamination
Experimental: In Vivo Preventive Test on Septoria tritici (Wheat) […] Wheat plants (“Scipion” variety), sown in starter cups on a 50/50 peat soil pozzolana substrate and grown at 22° C., are treated at the 1 leaf stage (10 cm height) by spraying with the active ingredient prepared as described above. Plants, used as controls, are treated with the mixture of acetone/tween/DMSO/water not containing the active material. After 24 hours, the plants are contaminated by spraying the leaves with an aqueous suspension of cryopreserved Septoria tritici spores (500 000 spores per mL). The contaminated wheat plants are incubated for 72 hours at 18° C. and at 100% relative humidity, and then for 21 days at 90% relative humidity. Grading (% of efficacy) is carried out 24 days after the contamination, in comparison with the control plants.

SMILES	Efficacy
CC(c1ccccc1-c1ccsc1)N(C(=O)c1c(C(F)F)nn(C)c1F)C1CC1 (stereo not drawn) [I.82]	97%
Cn1cc(C(=O)N(Cc2cc(-c3cccs3)ccc2Cl)C2CC2)c(C(F)F)n1 [I.84]	71%
Cc1ccc(-c2cscc2C)c(CN(C(=O)c2c(C(F)F)nn(C)c2F)C2CC2)c1 [I.108]	86%
COc1ccsc1-c1ccc(C)cc1CN(C(=O)c1c(C(F)F)nn(C)c1F)C1CC1 [I.125]	96%
Cc1ccc(-c2ccsc2Cl)c(CN(C(=O)c2c(C(F)F)nn(C)c2F)C2CC2)c1 [I.150]	80%

Same assay, conditions: 500 ppm of active ingredient; wheat plants; 24 days after contamination

SMILES	Efficacy
Cn1ccc(-c2ccccc2CN(C(=O)c2c(C(F)F)nn(C)c2F)C2CC2)c1 [I.49]	96%
Cn1nc(C(F)F)c(C(=O)N(Cc2ccccc2-c2cccs2)C2CC2)c1Cl [I.78]	83%
Cn1nc(C(F)F)c(C(=O)N(Cc2ccccc2-c2ccc(Cl)s2)C2CC2)c1Cl [I.141]	83%
Cn1cc(C(=O)N(Cc2cc(-c3ccc(Cl)s3)ccc2Cl)C2CC2)c(C(F)F)n1 [I.144]	100%
Cn1nc(C(F)F)c(C(=O)N(Cc2cc(-c3ccc(Cl)s3)ccc2Cl)C2CC2)c1Cl [I.145]	94%
